Data taken from ChEMBL document CHEMBL1137773, “Novel lead structures for p38 MAP kinase via FieldScreen virtual screening” (J Med Chem, 2009).

Tests used:
[1] = Inhibition of p38 MAPK at 10 uM by ELISA
[2] = Inhibition of p38 MAPK by ELISA

| Compound | inhibition [1] [%] | IC50 [2] [nM] |
| --- | --- | --- |
| Clc1cccc(-c2nnc3sc(COc4ccccc4)nn23)c1 | 3 | – |
| Clc1ccccc1-c1nnc2sc(CCc3ccccc3)nn12 | 72 | 2550 |
| Cn1nc(CC(=O)Nc2ccc(Br)cc2)c2ccccc2c1=O | 15 | – |
| Oc1ccc2ccccc2c1C1NN=C(c2ccccc2)S1 (stereo unspecified) | 21 | – |
| Cc1occc1-c1nnc2sc(COc3ccc(F)cc3)nn12 | 21 | – |
| CC1Cc2nc(SCC(N)=O)n(-c3ccc(F)cc3)c(=O)c2S1 (stereo unspecified) | 4 | – |
| CCc1ccc(OCC(=O)Nc2cccc3nc(C)ccc23)cc1 | 4 | – |
| COc1cccc(OCc2nn3c(-c4ccccc4)nnc3s2)c1 | 11 | – |
| Cc1occc1-c1nnc2sc(C(C)Oc3ccccc3)nn12 (stereo unspecified) | 30 | – |
| Cc1sc2ncnc(SCC(=O)c3ccc(F)cc3)c2c1C | 24 | – |
| Fc1ccc(-c2nnc3sc(CCc4ccccc4)nn23)cc1 | 32 | – |
| CCC(Oc1ccccc1)c1nn2c(-c3ccoc3C)nnc2s1 (stereo unspecified) | 31 | – |
| Cc1ccccc1OCc1nn2c(-c3ccccc3Cl)nnc2s1 | 65 | 3510 |
| O=C(c1cn(Cc2ccccc2F)c2ccccc12)C1CC1 | 23 | – |
| CC(C)(C)c1nnc2sc(COc3ccc(F)cc3)nn12 | 53 | 4710 |
| c1ccc(OCc2nn3c(-c4ccccc4)nnc3s2)cc1 | 39 | – |
| CCSc1ccccc1C(=O)N1CCc2ccccc21 | 4 | – |
| Cc1cccc(OCc2nn3c(-c4ccccc4Cl)nnc3s2)c1 | 76 | 1980 |
| CCC(O)Cc1nc(N)c(C#N)c(-c2ccccc2OC)c1C (stereo unspecified) | 20 | – |
| COc1ccc(Cc2nn3c(-c4ccccc4Cl)nnc3s2)cc1 | 83 | 440 |
| Cc1ccc(CNC(=O)CN(c2cccc(Cl)c2)S(C)(=O)=O)cc1 | 1 | – |
| Cc1ccccc1Cc1nnc2sc(COc3ccc(F)cc3)nn12 | 36 | – |
| CC(C)(C)c1nnc2sc(COc3ccccc3)nn12 | 61 | 3980 |
| Cc1onc(-c2c(Cl)cccc2Cl)c1C(=O)N1CCCCC1C (stereo unspecified) | 14 | – |
| CCn1c(SCc2ccccc2Cl)nc2ccccc2c1=O | 28 | – |
| Clc1ccc(-c2nnc3sc(CCc4ccccc4)nn23)c(Cl)c1 | 45 | – |
| Cc1ccc(NC(=O)Nc2c(Cl)cccc2Cl)c2c1CC(C)(C)O2 | 66 | – |

| Compound | inhibition [1] [%] | IC50 [2] [nM] |
| --- | --- | --- |
| COc1ccc(OCc2nn3c(-c4ccccc4Cl)nnc3s2)cc1 | 64 | 3880 |
| Cc1nn(Cc2ccccc2)c2c1C(c1ccc(Br)cc1)C(C#N)=C(N)O2 (stereo unspecified) | 40 | – |
| COc1ccccc1Cc1nnc2sc(COc3ccc(F)cc3)nn12 | 79 | 650 |
| Clc1ccccc1-c1nnc2sc(COc3ccccc3)nn12 | 76 | 790 |
| Cc1nnc2sc(COc3ccccc3)nn12 | 18 | – |
| Fc1ccc(OCc2nn3c(Cc4ccccc4)nnc3s2)cc1 | 32 | – |
| Cc1cccc(CC(=O)N(c2ccc(Br)cc2)C2C=CS(=O)(=O)C2)c1 (stereo unspecified) | 2 | – |
| c1ccc(CCc2nn3c(-c4ccncc4)nnc3s2)cc1 | 26 | – |
| CCOC(=O)C(C)Sc1nc2c(c(=O)n1-c1ccc(F)cc1)SCC2 (stereo unspecified) | 23 | – |
| CC(C)(Oc1ccccc1)c1nn2c(-c3ccoc3)nnc2s1 | 24 | – |
| O=C(Nc1ccc(F)cc1)c1cccc(S(=O)(=O)Nc2ccccc2)c1 | 15 | – |
| CCc1cc2c(SCC(=O)Nc3ccc(Br)cc3)ncnc2s1 | 14 | – |
| NC(=O)C(c1ccc(Cl)cc1)c1ccc(C(=O)c2ccccc2)cc1 (stereo unspecified) | 26 | – |
| Fc1ccccc1-c1nnc2sc(COc3ccccc3)nn12 | 73 | 3080 |
| COc1ccc(-c2nnc3sc(COc4ccc(F)cc4)nn23)cc1 | 31 | – |
| FC(F)(F)c1nnc2sc(COc3ccccc3)nn12 | 16 | – |
| CC(C)(C)c1ccc(OCc2nn3c(Cc4ccccc4)nnc3s2)cc1 | 12 | – |
| Cc1sc(NC(=O)c2ccc(Cl)cc2)c(C(=O)c2ccccc2)c1C | 31 | – |
| COc1ccccc1Cc1nnc2sc(COc3ccccc3)nn12 | 77 | 740 |
| COc1ccc(OCc2nn3c(-c4ccc(Cl)cc4Cl)nnc3s2)cc1 | 31 | – |
| CC(C)Oc1ccc(OCCSc2nc(=O)c3ccccc3[nH]2)cc1 | 23 | – |
| C=CCNc1sc(C(=O)c2ccc(F)cc2)c(N)c1C#N | 46 | – |
| COc1ccccc1NC1CC(=O)N(c2ccc(Cl)cc2)C1=O (stereo unspecified) | 20 | – |
| Cc1cc(-c2nnc3sc(COc4ccc(F)cc4)nn23)n(C)n1 | 22 | – |
| Brc1ccccc1-c1nnc2sc(COc3ccccc3)nn12 | 80 | 1240 |
| COc1ccc(OCc2nnc3sc(-c4ccccc4Cl)nn23)cc1 | 34 | – |
| Cc1ccccc1Cc1nnc2sc(COc3ccccc3)nn12 | 33 | – |
